Test results from the NIST ThermoML archive (doi:10.1016/j.fluid.2005.07.009).

What was measured:
[1] = Molar enthalpy of transition or fusion; details: DSC
[2] = molar heat capacity at constant pressure; details: 101.33 kPa, Small sample (50 mg) DSC
[3] = DTA

NCCCN [1,3-propanediamine]
Crystal 1
Details	Molar enthalpy of transition or fusion [kJ/mol]	Triple point temperature [K]
[1]	22.4	–
[3]	–	262.19

[2]
Details	molar heat capacity at constant pressure [J/K/mol]
210.17 K, Crystal 2	95.15
211.63 K, Crystal 2	98.6
212.38 K, Crystal 2	99.24
213.45 K, Crystal 2	100.56
214.52 K, Crystal 2	101.65
215.39 K, Crystal 2	102.15
216.89 K, Crystal 2	102.21
217.39 K, Crystal 2	102.47
218.2 K, Crystal 2	103.01
219.56 K, Crystal 2	103.15
220.98 K, Crystal 2	103.33
221.6 K, Crystal 2	104.53
222.57 K, Crystal 2	105.45
223.61 K, Crystal 2	106.47
224.16 K, Crystal 2	106.75
225.7 K, Crystal 2	106.91
226.44 K, Crystal 2	107.67
226.87 K, Crystal 2	108.07
228.09 K, Crystal 2	108.1
229.51 K, Crystal 2	108.47
230.13 K, Crystal 2	109.74
231.59 K, Crystal 2	110.88
232.5 K, Crystal 2	111.31
233.79 K, Crystal 2	111.43
234.58 K, Crystal 2	113.62
235.36 K, Crystal 2	115.41
237.9 K, Crystal 2	116.57
238.39 K, Crystal 2	116.7
239.37 K, Crystal 2	117.02
240.41 K, Crystal 2	119.05
269.31 K, Liquid	200.32
271.34 K, Liquid	200.44
273.29 K, Liquid	200.87
275.36 K, Liquid	200.94
277.41 K, Liquid	201.41
279.63 K, Liquid	201.51
281.55 K, Liquid	201.82
283.37 K, Liquid	202.03
285.47 K, Liquid	202.29
287.35 K, Liquid	202.53
289.23 K, Liquid	202.79
291.28 K, Liquid	203.12
293.27 K, Liquid	203.44
295.53 K, Liquid	204.02
297.16 K, Liquid	204.35
299.44 K, Liquid	204.4
302.13 K, Liquid	204.56
304.68 K, Liquid	204.87
306.46 K, Liquid	204.95
308.51 K, Liquid	205.44
310.56 K, Liquid	205.49
312.42 K, Liquid	205.78
315.65 K, Liquid	206.16
317.6 K, Liquid	206.28
320.27 K, Liquid	206.67
322.36 K, Liquid	206.76
325.51 K, Liquid	207.27
327.54 K, Liquid	207.43
330.44 K, Liquid	207.85
333.46 K, Liquid	207.99

CCCCCCCCCCN [1-decanamine]
Details	Molar enthalpy of transition or fusion [kJ/mol]
[1], Crystal	42.7

[2]
Details	molar heat capacity at constant pressure [J/K/mol]
260.31 K, Crystal	259.31
260.64 K, Crystal	260.44
260.93 K, Crystal	261.21
261.39 K, Crystal	261.42
261.62 K, Crystal	262.06
261.99 K, Crystal	263.4
262.32 K, Crystal	263.89
262.67 K, Crystal	264.94
262.94 K, Crystal	265.77
263.34 K, Crystal	266.8
263.61 K, Crystal	266.97
263.92 K, Crystal	267.74
264.39 K, Crystal	269.3
264.62 K, Crystal	269.42
264.91 K, Crystal	270.38
265.33 K, Crystal	271.97
265.61 K, Crystal	272.3
265.95 K, Crystal	273.03
266.38 K, Crystal	274.58
266.67 K, Crystal	275.4
266.96 K, Crystal	275.97
267.36 K, Crystal	277.46
267.62 K, Crystal	278.39
267.94 K, Crystal	279.27
268.33 K, Crystal	280.36
268.66 K, Crystal	281.82
268.95 K, Crystal	282.79
269.32 K, Crystal	283.64
269.63 K, Crystal	284.29
270.21 K, Crystal	285.94
298.11 K, Liquid	372.55
299.64 K, Liquid	373.35
300.38 K, Liquid	373.78
301.27 K, Liquid	373.82
302.37 K, Liquid	374.25
303.41 K, Liquid	374.33
304.05 K, Liquid	374.34
305.25 K, Liquid	374.39
306.31 K, Liquid	374.86
307.28 K, Liquid	375.02
308.4 K, Liquid	375.08
309.24 K, Liquid	375.35
310.32 K, Liquid	375.6
311.09 K, Liquid	375.9
312.37 K, Liquid	376.23
313.36 K, Liquid	376.31
314.28 K, Liquid	376.34
315.23 K, Liquid	376.91
316.39 K, Liquid	377.46
317.53 K, Liquid	377.49
318.23 K, Liquid	377.55
319.33 K, Liquid	377.88
320.09 K, Liquid	377.93
321.19 K, Liquid	377.99
322.08 K, Liquid	378.21
323.45 K, Liquid	378.65
324.17 K, Liquid	379.09
325 K, Liquid	379.38
326.2 K, Liquid	379.69
327.09 K, Liquid	379.8
328.21 K, Liquid	379.88
329.22 K, Liquid	380.68
330.18 K, Liquid	380.93
331.23 K, Liquid	381.19
332.31 K, Liquid	381.58
333.26 K, Liquid	382.32

CCCCCCN [1-hexanamine]
Details	Molar enthalpy of transition or fusion [kJ/mol]
[1], Crystal	25

[2]
Details	molar heat capacity at constant pressure [J/K/mol]
205.12 K, Crystal	135.48
206.53 K, Crystal	137.42
207.27 K, Crystal	138.49
208.18 K, Crystal	140.02
209.16 K, Crystal	140.47
210.21 K, Crystal	141.21
211.81 K, Crystal	141.65
212.3 K, Crystal	141.8
213.41 K, Crystal	141.86
214.27 K, Crystal	141.99
215.45 K, Crystal	143.94
216.17 K, Crystal	144.89
217.45 K, Crystal	145.13
218.13 K, Crystal	145.21
219.48 K, Crystal	146.21
220.34 K, Crystal	147.15
221.19 K, Crystal	148.86
222.04 K, Crystal	149.71
223.38 K, Crystal	151.47
224.66 K, Crystal	152.29
225.39 K, Crystal	153.27
226.42 K, Crystal	155.08
228.17 K, Crystal	156.72
230.11 K, Crystal	160.13
267.26 K, Liquid	248.4
268.63 K, Liquid	248.52
269.54 K, Liquid	248.61
270.16 K, Liquid	248.66
271.24 K, Liquid	248.67
272.69 K, Liquid	248.95
273.56 K, Liquid	249.01
274.18 K, Liquid	249.09
275.88 K, Liquid	249.12
276.66 K, Liquid	249.26
277.16 K, Liquid	249.31
278.69 K, Liquid	249.34
279.94 K, Liquid	249.36
280.47 K, Liquid	249.45
281.8 K, Liquid	249.47
282.34 K, Liquid	249.48
283.41 K, Liquid	249.51
284.45 K, Liquid	249.55
285.4 K, Liquid	249.79
286.56 K, Liquid	249.85
287.39 K, Liquid	249.86
288.43 K, Liquid	250.09
289.09 K, Liquid	250.12
290.21 K, Liquid	250.23
292.36 K, Liquid	250.46
293.15 K, Liquid	250.5
295.59 K, Liquid	250.98

CCCCCCCCN [1-octanamine]
Details	Molar enthalpy of transition or fusion [kJ/mol]
[1], Crystal	34.7

[2]
Details	molar heat capacity at constant pressure [J/K/mol]
214.08 K, Crystal	167.97
215.55 K, Crystal	170.58
217.65 K, Crystal	171.84
218.54 K, Crystal	174.15
220.18 K, Crystal	175.59
221.56 K, Crystal	175.94
223.07 K, Crystal	176.5
224.56 K, Crystal	177.92
226.18 K, Crystal	179.15
227.54 K, Crystal	180.21
229.16 K, Crystal	180.94
230.51 K, Crystal	183.42
232.12 K, Crystal	185.1
233.53 K, Crystal	186.36
235.26 K, Crystal	187
236.54 K, Crystal	188.74
238.13 K, Crystal	189.62
239.53 K, Crystal	191.53
241.11 K, Crystal	193.65
242.56 K, Crystal	195.03
244.04 K, Crystal	196.53
245.1 K, Crystal	197.38
246.25 K, Crystal	197.77
247.23 K, Crystal	198.38
248.63 K, Crystal	203.31
249.05 K, Crystal	203.59
249.65 K, Crystal	203.61
251.8 K, Crystal	204.04
252.23 K, Crystal	204.62
253.02 K, Crystal	206.62
295.09 K, Liquid	304.31
295.53 K, Liquid	304.33
296.13 K, Liquid	304.35
296.41 K, Liquid	304.94
297.1 K, Liquid	304.99
297.32 K, Liquid	305.36
298.16 K, Liquid	305.42
298.58 K, Liquid	305.98
299.02 K, Liquid	306.08
299.35 K, Liquid	306.45
300.13 K, Liquid	306.53
300.53 K, Liquid	306.69
301.18 K, Liquid	307.19
301.52 K, Liquid	307.31
302.16 K, Liquid	307.33
302.56 K, Liquid	307.36
303.28 K, Liquid	307.81
303.51 K, Liquid	308.08
304.44 K, Liquid	308.1
304.71 K, Liquid	308.11
304.99 K, Liquid	308.47
305.64 K, Liquid	308.51
306.11 K, Liquid	308.52
306.59 K, Liquid	308.6
307.38 K, Liquid	308.63
307.5 K, Liquid	308.83
308.05 K, Liquid	308.92
308.54 K, Liquid	309.05
309.16 K, Liquid	309.12
309.24 K, Liquid	309.24
310.24 K, Liquid	309.3
310.53 K, Liquid	309.35
311.07 K, Liquid	309.39
311.51 K, Liquid	310.16
312.64 K, Liquid	310.21
313.22 K, Liquid	310.76

CCCCCCCCCCCO [1-undecanol]
Crystal
Details	Molar enthalpy of transition or fusion [kJ/mol]	Triple point temperature [K]
[1]	30.6	–
[3]	–	289.63

[2]
Details	molar heat capacity at constant pressure [J/K/mol]
208.41 K, Crystal	193.11
209.57 K, Crystal	193.3
210.11 K, Crystal	194.69
211.02 K, Crystal	194.71
212.12 K, Crystal	196.33
213.87 K, Crystal	198.62
214.48 K, Crystal	201.14
215.51 K, Crystal	201.98
216.84 K, Crystal	205.69
217.02 K, Crystal	206.89
218.35 K, Crystal	208.79
219.08 K, Crystal	211.05
220.29 K, Crystal	213.58
221.74 K, Crystal	215.54
222.1 K, Crystal	216.27
223.31 K, Crystal	218.06
224.39 K, Crystal	219.4
225.72 K, Crystal	221.14
226.26 K, Crystal	221.42
227.04 K, Crystal	223.37
228.49 K, Crystal	225.69
229.28 K, Crystal	228.09
230 K, Crystal	228.5
231.02 K, Crystal	229.81
232.16 K, Crystal	232.96
233.13 K, Crystal	234.38
234.75 K, Crystal	235.74
235.83 K, Crystal	237.03
236.92 K, Crystal	238.89
237.34 K, Crystal	238.93
238.6 K, Crystal	239.94
239.8 K, Crystal	239.99
241.66 K, Crystal	243.63
243.34 K, Crystal	245.99
244.18 K, Crystal	246.89
246.11 K, Crystal	250.54
297.08 K, Liquid	405.86
298.17 K, Liquid	407.32
299.23 K, Liquid	408.96
300.25 K, Liquid	409.93
301.38 K, Liquid	411.68
302.21 K, Liquid	412.61
303.18 K, Liquid	413.77
304.11 K, Liquid	414.87
305.18 K, Liquid	415.8
306.27 K, Liquid	417.37
307.49 K, Liquid	418.89
308.58 K, Liquid	419.76
309.32 K, Liquid	421.18
310.02 K, Liquid	422.07
311.09 K, Liquid	423.23
312.51 K, Liquid	425.11
313.48 K, Liquid	426.38
314.66 K, Liquid	427.93
315.71 K, Liquid	429.81
316.18 K, Liquid	430
318.29 K, Liquid	432.46
320.24 K, Liquid	435.26
321.15 K, Liquid	436.27
323.33 K, Liquid	439.56

CCCCCCCCCO [nonan-1-ol]
Crystal
Details	Molar enthalpy of transition or fusion [kJ/mol]	Triple point temperature [K]
[1]	24.5	–
[3]	–	268.1

CCCCCCCCO [octan-1-ol]
Details	Triple point temperature [K]
[3], Crystal	258.03
